Where only a bound is given, the exact number is not on record here.

The target of data set [1] is PI3Kγ (Homo sapiens, UniProt P48736). The data set is described as follows: PI3Kγ inhibitory activity (PI3-kinase HTRF assay, inhibition ratio). It counts as biochemical. The following applies: compound at 10 μmol/L; for inhibition at 10 µM: 0.5 h, read-out: PI3Kg Inhibition Ratio % (10 μM). The protocol:
For each compound synthesized in the above Examples, PI3Kγ inhibitory activity was measured.
The PI3Kγ inhibitory activity of a compound was evaluated using PI3-kinase HTRF™ assay (Millipore) according to the following procedure:
To each well of a testing plate, 5 μL of a compound solution containing 10% DMSO (40 μmol/L as the concentration of the compound), 5 μL of a substrate solution (40 μmol/L phosphatidylinositol (4,5)-bisphosphate, 20 mmol/L MgCl2, 10 mmol/L DTT), and 5 μL of an enzyme solution (80 μg/mL PI-3 kinase y, 10 mmol/L MgCl2, 5 mmol/L DTT) were added, and then allowed to stand for 10 minutes.
Then, 5 μL of a reaction solution (40 μmol/L ATP, 10 mmol/L MgCl2, 5 mmol/L DTT) was added thereto. After reacting for 30 minutes at room temperature, 5 μL of a solution containing EDTA and biotinylated phosphatidylinositol (3,4,5)-triphosphate was added to quench the reaction.
5 μL of a detection reagent containing a europium-labeled anti-GST antibody, the GST-tagged PH domain, and allophycocyanin-labeled streptavidin was added thereto. After 18 hours, HTRF (excitation wavelength: 330 nm, measured wavelengths: 620 nm and 665 nm) was measured.
HTRF ratio was defined as the value obtained by dividing the amount of fluorescence obtained at the measured wavelength 665 nm by the amount of fluorescence obtained at 620 nm. The HTRF ratio in the absence of a compound was defined as 100% activity and the HTRF ratio in the absence of PI-3 kinase y was defined as 0% activity to calculate an inhibition ratio, which was defined as the PI3Kγ inhibitory activity of a compound at 10 μmol/L.
On the technique in general: TR-FRET usually uses a lanthanide donor and a delayed reading to cut background.

The nature of data set [2]: Metabolic stability test (pooled human liver microsome). It counts as in vitro ADME. Particulars: percentage of test compound remained after 30 minutes, pooled human liver microsome 0.5 mg protein/mL, 1 mmol/L NADPH, 37° C.; for hLMS_ox(at 0.5 μM) %: compound 0.5 μM. As to the method: After a subject compound was reacted for a certain time using a pooled human liver microsome commercially available, a reacted sample and an unreacted sample are compared to calculate a survival ratio, and then the degree of metabolism in the liver was evaluated.
0.2 mL of a buffer solution (50 mmol/L of Tris-HCl in pH 7.4, 150 mmol/L of potassium chloride, and 10 mmol/L of magnesium chloride) containing a human liver microsome of 0.5 mg protein/mL was reacted in the presence of 1 mmol/L NADPH at 37° C. for 0 or 30 minutes (oxidative reaction). After reacting, 50 μL of the reaction solution was added to 100 μL of a solution of methanol/acetonitrile (1/1 (v/v)), mixed, and then centrifuged at 3000 rpm for 15 minutes. The test compound in the supernatant was quantitated with LC/MS/MS. The amount of the compound at a reaction time of 0 minute was defined as 100% and, based on that, the percentage of the test compound remained after reacting for 30 minutes was calculated.
Background: Liver microsomes are a subcellular fraction often used to study metabolism.

PI3Kγ, sequence (P48736 whole entry, species assumed): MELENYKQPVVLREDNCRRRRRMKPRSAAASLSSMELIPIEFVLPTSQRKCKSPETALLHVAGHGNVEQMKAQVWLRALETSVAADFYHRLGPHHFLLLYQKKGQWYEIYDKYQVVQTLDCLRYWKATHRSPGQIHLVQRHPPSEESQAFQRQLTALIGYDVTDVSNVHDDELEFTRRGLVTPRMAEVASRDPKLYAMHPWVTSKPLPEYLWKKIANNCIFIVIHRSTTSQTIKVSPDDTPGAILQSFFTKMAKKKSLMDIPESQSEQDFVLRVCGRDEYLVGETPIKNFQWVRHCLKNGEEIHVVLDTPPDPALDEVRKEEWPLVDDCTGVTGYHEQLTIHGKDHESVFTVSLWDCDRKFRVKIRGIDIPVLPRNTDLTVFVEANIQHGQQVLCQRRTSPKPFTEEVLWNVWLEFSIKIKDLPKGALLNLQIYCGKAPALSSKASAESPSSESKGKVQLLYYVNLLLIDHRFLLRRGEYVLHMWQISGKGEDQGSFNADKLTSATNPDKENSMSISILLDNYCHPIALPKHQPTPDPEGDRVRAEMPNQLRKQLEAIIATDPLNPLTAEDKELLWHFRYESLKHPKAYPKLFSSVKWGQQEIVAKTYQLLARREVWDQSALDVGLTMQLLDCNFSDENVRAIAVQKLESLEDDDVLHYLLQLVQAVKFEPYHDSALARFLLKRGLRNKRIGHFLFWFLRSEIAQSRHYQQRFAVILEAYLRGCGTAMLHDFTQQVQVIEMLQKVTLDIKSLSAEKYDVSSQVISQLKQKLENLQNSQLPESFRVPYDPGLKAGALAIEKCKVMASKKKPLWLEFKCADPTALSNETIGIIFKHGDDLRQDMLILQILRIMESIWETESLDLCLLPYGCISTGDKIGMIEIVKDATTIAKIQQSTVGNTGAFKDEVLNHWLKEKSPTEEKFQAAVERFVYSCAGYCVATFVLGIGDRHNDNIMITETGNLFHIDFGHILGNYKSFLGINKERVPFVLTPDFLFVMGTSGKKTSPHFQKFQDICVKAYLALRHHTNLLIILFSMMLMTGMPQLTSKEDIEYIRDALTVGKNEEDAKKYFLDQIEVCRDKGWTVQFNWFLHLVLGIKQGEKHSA

Regarding `COc1ccc(-c2ccc3nc(NC(=O)Nc4ccccc4OCCC(C)C)sc3c2)cn1` [Compound I-215], the inhibition at 10 µM in data set [1] is ≥ 95%.
On the same count and under the same terms, the value for `COc1ccc(-c2cc(NC(=O)Nc3ccccc3C(=O)NC(C)C)nn2C)cn1` [Compound I-228] was 88%.
For `Cc1cc(N2CCc3nc(NC(=O)Nc4ccccc4C(=O)NC(C)C)sc3C2)nc(C#N)n1` [Compound I-181], the inhibition at 10 µM in data set [1] amounted to 79%. Also, the “hLMS_ox(at 0.5 μM) %” value in data set [2] is listed as 85.9%.
With `COc1cc(N2CCc3nc(NC(=O)Nc4ccccc4C(=O)N4CCCCC4)sc3C2)nc(OC)n1` [Compound I-8], in data set [1], the inhibition at 10 µM stood at 93%.
In the case of `COc1cc(N2CCc3nc(NC(=O)Nc4ccccc4C(=O)NCCO)sc3C2)nc(OC)n1` [Compound I-85], the inhibition at 10 µM in data set [1] was ≥ 95%. Besides, the “hLMS_ox(at 0.5 μM) %” value in data set [2] is on record as 90.2%.
On the same counts, the results for `C[C@H](CO)NC(=O)c1ccccc1NC(=O)Nc1nc2c(s1)CN(c1ccc(C(F)(F)F)cc1)CC2` [Compound I-207] are 93% and 93.5%.
For `O=C(Nc1nc2c(s1)CN(c1ccnc(Cl)n1)CC2)Nc1ccccc1C(=O)NCCO` [Compound I-99], in that order: ≥ 95% and 90.6%.
In the case of `COc1cc(N2CCc3nc(NC(=O)Nc4ccccc4C(=O)OC(C)(C)C)sc3C2)nc(OC)n1` [Compound I-3], in data set [1], the inhibition at 10 µM was ≥ 95%. The “hLMS_ox(at 2 μM) %” value in data set [2] (compound 2 μM) is 82%.
For the compound `CC(=O)c1cccc(-c2ccc3nc(NC(=O)Nc4ccccc4OCCC(C)C)nn3c2)c1` [Compound I-217], the inhibition at 10 µM in data set [1] is 88%.
Turning to `COc1cc(N2CCc3nc(NC(=O)Nc4cccc5c4C(=O)N(C(C)C)C5)sc3C2)nc(OC)n1` [Compound I-201], the inhibition at 10 µM in data set [1] came to 78%.
Still for that read-out and setting: then `COc1ccc(-c2ccc3nc(NC(=O)Nc4ccccc4OCCC(C)C)sc3n2)cn1` [Compound I-220], with ≥ 95%; and `COc1ccc(-c2ccc3nc(NC(=O)Nc4ccccc4OCCC(C)C)nn3c2)cn1` [Compound I-218], with 90%.
For the compound `COc1cc(N2CCc3nc(NC(=O)Nc4ccccc4OCC(C)C)sc3C2)nc(OC)n1` [Compound I-47], the inhibition at 10 µM in data set [1] is ≥ 95%.
Still for that read-out and setting: the value for `COc1cc(N2CCc3nc(NC(=O)Nc4ccccc4CC(C)C)sc3C2)nc(OC)n1` [Compound I-68] was ≥ 95%; that for `COc1cc(N2CCc3nc(NC(=O)Nc4ccccc4C(=O)N(C)C(C)(C)C)sc3C2)nc(OC)n1` [Compound I-11] was 94%.
As for `CC(CO)NC(=O)c1ccccc1NC(=O)Nc1nc2c(s1)CN(c1ccnc(F)c1)CC2` (stereo not drawn) [Compound I-122], the inhibition at 10 µM in data set [1] was ≥ 95%. In addition, the “hLMS_ox(at 0.5 μM) %” value in data set [2] was determined as 90.6%.
Take `COC(=O)c1sccc1NC(=O)Nc1nc2c(s1)CN(c1cc(OC)nc(OC)n1)CC2` [Compound I-2]: the inhibition at 10 µM in data set [1] is 69%.
As for `CC(C)NC(=O)c1nn(C)cc1NC(=O)Nc1nc2c(s1)CN(c1cc[nH]c(=O)c1)CC2` [Compound I-184], in data set [1], the inhibition at 10 µM worked out at 75%. For the same compound, in data set [2], the “hLMS_ox(at 0.5 μM) %” value is 98.1%.
With `COc1cc(N2CCc3nc(NC(=O)Nc4ccccc4S(=O)(=O)NC(C)C)sc3C2)nc(OC)n1` [Compound I-171], the inhibition at 10 µM in data set [1] is 85%.
On to `COc1cc(N2CCc3nc(NC(=O)Nc4ccccc4NC(=O)C(C)(C)C)sc3C2)nc(OC)n1` [Compound I-44], for which the inhibition at 10 µM in data set [1] was ≥ 95%.
On the same count and under the same terms, the value for `COc1cc(N2CCc3nc(NC(=O)Nc4ccsc4C(=O)NC(C)(C)C)sc3C2)nc(OC)n1` [Compound I-26] was ≥ 95%; that for `COc1cc(N2CCc3nc(NC(=O)Nc4ccccc4C(=O)NC(C)(C)C#N)sc3C2)nc(OC)n1` [Compound I-25] was ≥ 95%.
Consider `COC(=O)c1ccsc1NC(=O)Nc1nc2c(s1)CN(c1cc(OC)nc(OC)n1)CC2` [Compound I-1], for which the inhibition at 10 µM in data set [1] came to 79%.
Consider `CO/N=C(\C)c1ccccc1NC(=O)Nc1nc2c(s1)CN(c1cc(OC)nc(OC)n1)CC2` [Compound I-196], for which the inhibition at 10 µM in data set [1] came to 83%.
Take `CC(CO)NC(=O)c1ccccc1NC(=O)Nc1nc2c(s1)CN(c1cc(F)cc(F)c1)CC2` (stereo not drawn) [Compound I-119]: the inhibition at 10 µM in data set [1] is ≥ 95%. For the same compound, the “hLMS_ox(at 0.5 μM) %” value in data set [2] is recorded as 90.8%.
On to `COC(=O)C(C)(C)NC(=O)c1ccccc1NC(=O)Nc1nc2c(s1)CN(c1cc(OC)nc(OC)n1)CC2` [Compound I-17], for which the inhibition at 10 µM in data set [1] is ≥ 95%.
As for `COc1nccc(N2CCc3nc(NC(=O)Nc4ccccc4OCCC(C)C)sc3C2)n1` [Compound I-96], in data set [1], the inhibition at 10 µM was ≥ 95%.
Same read-out and setting: the value for `COc1cc(N2CCc3nc(NC(=O)Nc4ccccc4C(O)CC(C)C)sc3C2)nc(OC)n1` (stereo not drawn) [Compound I-116] was ≥ 95%; that for `CC(=O)c1cccc(-c2cc(NC(=O)Nc3ccccc3OCCC(C)C)nn2C)c1` [Compound I-222] was ≥ 95%.
As to `Cc1cc(N2CCc3nc(NC(=O)Nc4cn(C)nc4C(=O)NC(C)C)sc3C2)nc(Cl)n1` [Compound I-164], in data set [1], the inhibition at 10 µM was 93%.
For the compound `COc1cc(N2CCc3nc(NC(=O)Nc4ccccc4C(=O)NC(C)CO)sc3C2)nc(OC)n1` (stereo not drawn) [Compound I-87], the inhibition at 10 µM in data set [1] was ≥ 95%. In addition, in data set [2], the “hLMS_ox(at 0.5 μM) %” value is given as 91.9%.
As for `COc1cc(N2CCc3nc(NC(=O)Nc4ccccc4C(=O)CCC(C)C)sc3C2)nc(OC)n1` [Compound I-66], the inhibition at 10 µM in data set [1] was ≥ 95%.
Still for that read-out and setting: then `CC(C)NC(=O)c1nn(C)cc1NC(=O)Nc1nc2c(s1)CN(c1cncc(C(F)(F)F)c1)CC2` [Compound I-132], with 85%; and `COC(=O)c1ccccc1NC(=O)Nc1nc2c(s1)CN(c1cc(OC)nc(OC)n1)CC2` [Compound I-6], with ≥ 95%.
In the case of `COc1cc(N2CCc3nc(NC(=O)Nc4ccccc4C(=O)NN(C)C)sc3C2)nc(OC)n1` [Compound I-194], in data set [1], the “PI3Kg Inhibition Ratio % (10 μM)” value is 92%.
Turning to `COC(=O)c1ccncc1NC(=O)Nc1nc2c(s1)CN(c1cc(OC)nc(OC)n1)CC2` [Compound I-21], the inhibition at 10 µM in data set [1] was 74%.
Still for that read-out and setting: then `COc1cc(N2CCc3nc(NC(=O)Nc4ccccc4C(=O)NC(C)(C)CO)sc3C2)nc(OC)n1` [Compound I-15], with 94%.
For the compound `COCC(C)NC(=O)c1ccccc1NC(=O)Nc1nc2c(s1)CN(c1cc(OC)nc(OC)n1)CC2` (stereo not drawn) [Compound I-18], in data set [1], the inhibition at 10 µM was 94%.
In the case of `COc1cc(N2CCc3nc(NC(=O)N[C@@H]4C[C@H]4C(=O)NC(C)C)sc3C2)nc(OC)n1` [Compound I-130], the “hLMS_ox(at 0.5 μM) %” value in data set [2] was 104%.
Regarding `COc1cc(N2CCc3nc(NC(=O)Nc4ccc(F)cc4C(=O)NC(C)C)sc3C2)nc(OC)n1` [Compound I-32], the inhibition at 10 µM in data set [1] is ≥ 95%.
On to `CC(=O)c1cccc(-c2ccc3nc(NC(=O)Nc4ccccc4OCCC(C)C)sc3c2)c1` [Compound I-214], for which the inhibition at 10 µM in data set [1] is ≥ 95%.
Take `C[C@@H](CO)NC(=O)c1ccccc1NC(=O)Nc1nc2c(s1)CN(c1ccc(C(F)(F)F)cc1)CC2` [Compound I-206]: the inhibition at 10 µM in data set [1] was 87%.
Regarding `COc1cc(N2CCc3nc(NC(=O)Nc4ccccc4O)sc3C2)nc(OC)n1` [Compound I-177], the inhibition at 10 µM in data set [1] worked out at 88%.
On to `CC(CO)NC(=O)c1ccccc1NC(=O)Nc1nc2c(s1)CN(c1ccc(F)c(F)c1)CC2` (stereo not drawn) [Compound I-118], for which, in data set [1], the inhibition at 10 µM is ≥ 95%. Moreover, in data set [2], the “hLMS_ox(at 0.5 μM) %” value was 89.8%.

(Values after patent publication US20120071475A1, “UREA DERIVATIVES HAVING PI3K-INHIBITING ACTIVITY” (SHIONOGI & CO., LTD., priority 2009, published 2012).)
